Values after ≈ are worked out from the molar mass of the structure shown.

The text below walks through data of US20240225971A1 (Genomatica, Inc., priority 2021, published 2024).

Data set [1] can be described thus: Solubility of fragrance ingredients in bioderived 1,3-BG (visual inspection). The conditions noted are these: 10% ingredient in bioderived 1,3-BG; excellent, good, moderate, poor, or none.
Description: (§2) Clarity for each of the fragrance ingredients (10% in bioderived 1,3-BG) was determined by visual observations after compounding and blending the fragrance ingredient with bioderived 1,3-BG and identified as clear, slightly haze, cloudy, particles, or separation.
(§3) Clarity for each of the fragrance ingredients (at 1% in bioderived 1,3-BG) was determined by visual observations after compounding and blending the fragrance ingredient with bioderived 1,3-BG and identified as clear, slightly haze, cloudy, particles, or separation.
Data set [2] is described as follows: Vapor pressure of fragrance ingredients. The source says: (§1) Also included is the molecular weight of each of the fragrance ingredients. Not determinable (ND).
A short description of data set [3]: Clarity of fragrance ingredient in bioderived 1,3-BG by visual observation. The settings on record: 10% ingredient in bioderived 1,3-BG; clear, slightly haze, cloudy, particles, or separation.
Description: as §2, §3
Data set [4] can be described thus: Flash point of fragrance ingredients. It counts as physicochemical.
Description: as §1

A short description of data set [5]: Water solubility at 25° C. of fragrance ingredients. The settings on record: 25° C.
Description: as §1

The next data set in a line: physchem.
Description: The term “fragrance composition” or “composition,” as used herein, represents a composition containing one or more fragrance ingredients described here and formulated with a physiologically acceptable diluent or solvent, used interchangeably here. In a fragrance composition, or composition that has a fragrance, such as a perfume, 20%-40% of the observable liquid may be comprised of a diluent, i.e., the delivery system for scents of the fragrance ingredients. The “log P” value, as used here, indicates whether a substance or fragrance ingredient will be absorbed by humans, animals, plants, or living tissue; diffused or disseminated by water.
as §1

Another data set has as its system microorganisms. The data set can be described thus: Minimum Inhibitory Concentration (MIC) testing. The data set is classed as cell-based.
Data set [6] is described as follows: Repeated Insult Patch Test. The data set is classed as in vivo, human. The method, then: Prior to the initiation of the study, each jar containing the test material received a N2 blanket conducted by the Analytical Department at Consumer Product Testing Company.
The upper back between the scapulae served as the treatment area. Approximately 0.2 ml of the test material, or an amount sufficient to cover the contact surface, was applied to the 1″×1″ absorbent pad portion of a clear adhesive dressing. This was then applied to the appropriate treatment site to form a semi-occlusive patch.
Erythema was scored numerically according to the key in TABLE 16. If present, additional Dermal Sequelae were indicated by the appropriate letter code and a numerical value for severity was assigned.
Patches were applied three (3) times per week (e.g., Monday, Wednesday, and Friday) for a total of nine (9) applications. The site was marked to ensure the continuity of patch application. Following supervised removal and scoring of the first Induction patch, participants were instructed to remove all subsequent Induction patches at home, twenty-four hours after application. The evaluation of this site was made again just prior to re-application. If a participant was unable to report for an assigned test day, one (1) makeup day was permitted. This day was added to the Induction period.
Applications were discontinued for the remainder of this test phase, if a moderate (2-level) reaction was observed on this new test site. Applications would also be discontinued if marked (3-level) or severe (4-level) reactivity was noted.
Rest periods consisted of one day following each Tuesday and Thursday removal, and two days following each Saturday removal.
Approximately two (2) weeks after the final Induction patch application, a Challenge patch was applied to a virgin test site adjacent to the original Induction patch site, following the same procedure described for the Induction Phase. The Challenge patch was removed and the site scored at the clinic on Day 1 and Day 3 post-application.

The nature of data set [7]: Technical quality analysis (viscosity, precipitation, color, visual clarity, skin testing).
Description: Color changes were noted if there were any color variation resulting from the addition of fragrance ingredient in diluent. For select fragrance ingredients, skin testing was performed. Specifically, in the first round of testing, skin odor evaluation was performed on an interim basis for selective ingredients.

By logP is commonly meant a log measure of how a compound divides between an organic and an aqueous phase. High values mean a more lipophilic compound, low ones a more hydrophilic compound. With `CCCc1ccc(O)c(OC)c1` [Dihydro Eugenol], the “Solubility 10%” value in data set [1] is “Good”. For the same compound, the “Vapor Pressure” value in [2] is recorded as 0.006 mm hg. Also, the “Clarity 10%” value in data set [3] is on record as “Clear”. Also, the “Flash Point” value in data set [4] stood at 100 °C. Also, in data set [5], the “Water Solubility” value came out at 228.000 µg/mL. The compound further displayed a logP in the data set “physchem” of 2.39.
With `CCCCCC1C(=O)CCC1CC(=O)OC` (centres unmarked) [Hedione], the “Solubility 10%” value in data set [1] is “Good”. Further, the “Vapor Pressure” value in data set [2] is listed as 0.001 mm hg. In addition, the “Clarity 10%” value in [3] is given as “Clear”. In addition, the “Flash Point” value in [4] is 148 °C. Further, in [5], the “Water Solubility” value was 91.720 µg/mL. In the data set “physchem”, this compound yielded a logP of 2.653.
As a reminder, the MIC is the least concentration at which growth counts as inhibited. In turn, `CC(O)CCO` (centres unmarked) [bioBG, 1,3-butylene glycol] yielded a minimum inhibitory concentration (MIC) with microorganisms (Escherichia coli, E. coli, concentration completely inhibiting microbial growth) of 100 mg/mL (≈ 1110 mM). Besides, the “inhibition of microbial growth in MIC tests” value with microorganisms (compared to 1,3-PG and glycerin) is “increased ability to inhibit microbial growth compared to 1,3-Propylene Glycol (1,3-PG) and glycerin”. For the same compound, the adverse events result in data set [6] (40% dilution in water) is “no adverse events”. Further, in data set [6] (bioBG diluted to 40%, human subjects, Challenge patch, Day 1 post-application, supervised removal, one line per subject), the “Virgin Challenge Site Day 1* skin reaction score” value is 0. Also, the “Virgin Challenge Site Day 3 skin reaction score” value in [6] (bioBG diluted to 40%, human subjects, Challenge patch, Day 3 post-application, one line per subject) is listed as 0. Moreover, in data set [6] (bioBG diluted to 40%, human subjects, Induction reading 2, one line per subject), the “Induction Phase 2 skin reaction score” value stood at 0. Moreover, the “Induction Phase 3 skin reaction score” value in [6] (bioBG diluted to 40%, human subjects, Induction reading 3, one line per subject) was 0. In data set [6] (bioBG diluted to 40%, human subjects, Induction reading 4, one line per subject), the “Induction Phase 4 skin reaction score” value was 0. Moreover, the “Induction Phase 5 skin reaction score” value in data set [6] (bioBG diluted to 40%, human subjects, Induction reading 5, one line per subject) was 0. Moreover, in [6] (bioBG diluted to 40%, human subjects, Induction reading 6, one line per subject), the “Induction Phase 6 skin reaction score” value is reported as 0. Moreover, in data set [6] (bioBG diluted to 40%, human subjects, Induction reading 7, one line per subject), the “Induction Phase 7 skin reaction score” value stood at 0. Also, the “Induction Phase 8 skin reaction score” value in data set [6] (bioBG diluted to 40%, human subjects, Induction reading 8, one line per subject) came to 0. Also, the “Induction Phase 9 skin reaction score” value in data set [6] (bioBG diluted to 40%, human subjects, Induction reading 9, one line per subject) was determined as 0. Also, in data set [6] (bioBG diluted to 40%, human subjects, first Induction patch, supervised removal, one line per subject), the “Induction Phase Day 1* skin reaction score” value is on record as 0. For the same compound, in data set [6] (up to a concentration of 40%), the “skin properties when applied to skin” value is listed as “non-irritating, non-sensitizing, and/or non-allergenic”. The “visual clarity compared to DPG, BB, IPM” value in data set [7] is recorded as “exceptional visual clarity with a crystal clear appearance”. Further, the viscosity result in data set [7] (observed with the different fragrance ingredients) was “very consistent”.
